In experiment [1] the target is IKKε (Homo sapiens (Human), UniProt Q14164). Nature of the experiment: IKKε TR-FRET enzymatic assay. The class given is biochemical. To be noted: read-out: IKKe IC50. (In general: Time-resolved FRET reads energy transfer from a long-lived donor to a nearby acceptor.)
Experiment [2] concerns the target hJAK2 (Homo sapiens (Human), UniProt O60674). Nature of the experiment: hJAK2 LANCE TR-FRET enzymatic assay. The settings on record: read-out: JAK2 IC50. The class given is biochemical.
Experiment [3] deals with TBK1 (Homo sapiens (Human), UniProt Q9UHD2). The experiment is described as follows: TBK1 TR-FRET enzymatic assay.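 Further: phosphorylation of a biotinylated Ser/Thr peptide by purified full-length recombinant TBK1, read by TR-FRET after 240 min at 25 °C, IC50 is the geometric mean of at least four runs.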
TBK1, sequence (Q9UHD2 whole entry): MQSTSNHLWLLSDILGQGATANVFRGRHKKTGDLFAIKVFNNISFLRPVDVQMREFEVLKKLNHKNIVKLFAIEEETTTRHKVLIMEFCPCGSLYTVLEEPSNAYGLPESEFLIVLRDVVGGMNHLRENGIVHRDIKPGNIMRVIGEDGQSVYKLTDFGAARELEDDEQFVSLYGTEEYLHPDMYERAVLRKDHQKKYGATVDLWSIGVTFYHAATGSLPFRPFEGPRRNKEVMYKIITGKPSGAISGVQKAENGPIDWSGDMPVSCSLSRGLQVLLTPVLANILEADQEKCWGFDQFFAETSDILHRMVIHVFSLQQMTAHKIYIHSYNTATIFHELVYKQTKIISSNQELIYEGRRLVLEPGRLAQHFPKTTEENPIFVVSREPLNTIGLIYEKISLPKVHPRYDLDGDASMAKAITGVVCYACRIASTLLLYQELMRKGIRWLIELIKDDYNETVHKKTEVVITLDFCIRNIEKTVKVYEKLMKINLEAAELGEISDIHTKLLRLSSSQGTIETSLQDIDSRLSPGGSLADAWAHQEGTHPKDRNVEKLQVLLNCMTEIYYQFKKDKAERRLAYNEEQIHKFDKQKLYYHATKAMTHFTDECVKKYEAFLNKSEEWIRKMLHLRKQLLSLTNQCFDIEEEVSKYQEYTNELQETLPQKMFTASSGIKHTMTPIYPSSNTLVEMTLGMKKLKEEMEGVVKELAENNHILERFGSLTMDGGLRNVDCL

Drawing on patent US10040781B2, “Tank-binding kinase inhibitor compounds” (Gilead Sciences, Inc., priority 2014, dated 2018), this text covers IC50 for eight compounds.

Read-outs that look alike come from different tables or passages of the source.

hJAK2, sequence (O60674 whole entry): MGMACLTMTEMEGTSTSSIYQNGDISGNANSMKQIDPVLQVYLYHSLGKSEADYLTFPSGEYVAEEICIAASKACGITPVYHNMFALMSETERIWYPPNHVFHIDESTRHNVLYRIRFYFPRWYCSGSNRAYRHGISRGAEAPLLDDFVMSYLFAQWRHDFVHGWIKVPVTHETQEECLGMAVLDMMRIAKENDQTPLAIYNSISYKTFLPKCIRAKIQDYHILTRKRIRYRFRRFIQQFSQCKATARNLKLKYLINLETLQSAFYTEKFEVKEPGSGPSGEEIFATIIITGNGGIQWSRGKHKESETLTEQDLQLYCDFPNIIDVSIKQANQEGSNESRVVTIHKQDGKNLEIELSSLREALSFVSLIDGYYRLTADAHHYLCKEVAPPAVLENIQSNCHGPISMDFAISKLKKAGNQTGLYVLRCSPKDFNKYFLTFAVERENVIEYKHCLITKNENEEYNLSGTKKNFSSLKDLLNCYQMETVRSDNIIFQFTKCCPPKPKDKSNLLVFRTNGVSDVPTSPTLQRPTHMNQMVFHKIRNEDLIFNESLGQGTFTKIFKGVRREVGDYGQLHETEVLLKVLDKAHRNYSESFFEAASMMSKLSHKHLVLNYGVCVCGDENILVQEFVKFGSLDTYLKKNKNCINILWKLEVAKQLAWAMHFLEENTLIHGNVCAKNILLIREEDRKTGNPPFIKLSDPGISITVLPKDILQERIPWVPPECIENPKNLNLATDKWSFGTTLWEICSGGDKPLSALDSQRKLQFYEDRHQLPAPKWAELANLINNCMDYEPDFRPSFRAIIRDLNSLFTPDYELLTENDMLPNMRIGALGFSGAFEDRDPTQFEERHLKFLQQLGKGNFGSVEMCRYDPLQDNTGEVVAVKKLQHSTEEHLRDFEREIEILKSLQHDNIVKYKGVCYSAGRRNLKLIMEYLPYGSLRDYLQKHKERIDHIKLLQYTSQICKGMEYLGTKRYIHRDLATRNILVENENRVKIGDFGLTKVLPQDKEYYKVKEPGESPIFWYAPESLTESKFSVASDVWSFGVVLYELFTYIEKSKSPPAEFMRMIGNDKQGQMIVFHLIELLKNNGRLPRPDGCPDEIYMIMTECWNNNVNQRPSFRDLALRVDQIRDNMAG
IKKε, sequence (Q14164 whole entry): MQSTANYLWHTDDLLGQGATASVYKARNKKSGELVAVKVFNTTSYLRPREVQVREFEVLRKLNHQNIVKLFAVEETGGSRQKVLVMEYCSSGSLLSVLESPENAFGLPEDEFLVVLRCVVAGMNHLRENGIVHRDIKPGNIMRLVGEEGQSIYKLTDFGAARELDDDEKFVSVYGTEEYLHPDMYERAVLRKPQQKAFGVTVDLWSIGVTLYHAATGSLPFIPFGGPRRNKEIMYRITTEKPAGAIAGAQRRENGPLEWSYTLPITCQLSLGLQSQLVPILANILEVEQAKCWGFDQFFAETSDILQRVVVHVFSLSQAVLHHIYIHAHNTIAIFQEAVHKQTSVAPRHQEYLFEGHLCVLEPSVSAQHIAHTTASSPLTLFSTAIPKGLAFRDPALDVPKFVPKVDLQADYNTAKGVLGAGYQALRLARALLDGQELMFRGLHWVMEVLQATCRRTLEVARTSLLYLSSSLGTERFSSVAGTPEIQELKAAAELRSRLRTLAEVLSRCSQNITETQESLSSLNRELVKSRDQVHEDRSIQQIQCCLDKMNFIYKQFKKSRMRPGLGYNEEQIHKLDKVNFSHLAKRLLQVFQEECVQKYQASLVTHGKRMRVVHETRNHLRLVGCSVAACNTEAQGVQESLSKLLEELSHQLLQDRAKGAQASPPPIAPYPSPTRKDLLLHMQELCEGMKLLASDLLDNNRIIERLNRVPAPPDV

Usually IC50 stands for the point on the concentration scale where inhibition reaches its midpoint. For the compound `CC1(C)CN(C(=O)CC#N)C[C@@H](F)[C@H]1Oc1ccc(-c2ncnc(Nc3ccc(N4CCN(C5COC5)CC4)cc3)n2)cc1C#N` [Example 450, 2-(((4S,5R)-1-(2-cyanoacetyl)-5-fluoro-3,3-dimethylpiperidin-4-yl)oxy)-5-(4-((4-(4-(oxetan-3-yl)piperazin-1-yl)phenyl)amino)-1,3,5-triazin-2-yl)benzonitrile], the IC50 in experiment [1] (TR-FRET, 2×Km ATP, geometric mean of minimum four determinations) turned out to be 3 nM; in experiment [2], 48 nM; in experiment [3] it was 3 nM.
`N#Cc1cc(-c2ncnc(Nc3ccc(N4CCN(C5COC5)CC4)cc3)n2)ccc1O[C@H]1CCN(C(=O)c2cn[nH]c2)C[C@H]1F` [Example 356, 2-(((3R,4S)-3-fluoro-1-(1H-pyrazole-4-carbonyl)piperidin-4-yl)oxy)-5-(4-((4-(4-(oxetan-3-yl)piperazin-1-yl)phenyl)amino)-1,3,5-triazin-2-yl)benzonitrile]: the values for the IC50 in experiment [1], in experiment [2] and in experiment [3] were 3 nM, 550 nM and 2 nM, respectively.
The like results for `C[C@H](O)C(=O)N1CC[C@H](Oc2ccc(-c3ncnc(Nc4ccc(N5CCN(C6COC6)CC5)cc4)n3)cc2C#N)C[C@H]1C` [Example 183, 2-(((2R,4S)-1-((S)-2-hydroxypropanoyl)-2-methylpiperidin-4-yl)oxy)-5-(4-((4-(4-(oxetan-3-yl)piperazin-1-yl)phenyl)amino)-1,3,5-triazin-2-yl)benzonitrile] were, in that order, 120 nM, 593 nM and 50 nM.
The like results for `N#Cc1cc(-c2ncnc(Nc3ccc(N4CCN(C5COC5)CC4)cc3)n2)ccc1OC1CN(C(=O)CO)C1` [Example 274, 2-((1-(2-hydroxyacetyl)azetidin-3-yl)oxy)-5-(4-((4-(4-(oxetan-3-yl)piperazin-1-yl)phenyl)amino)-1,3,5-triazin-2-yl)benzonitrile] were, in that order, ≥ 1000 nM, ≥ 1000 nM and 47 nM.
The matching figures for `CCn1cc(Nc2ncnc(-c3ccc(O[C@H]4CCN(C(=O)CO)C[C@H]4F)c(C#N)c3)n2)cn1` [Example 360, 5-(4-((1-ethyl-1H-pyrazol-4-yl)amino)-1,3,5-triazin-2-yl)-2-(((3R,4S)-3-fluoro-1-(2-hydroxyacetyl)piperidin-4-yl)oxy)benzonitrile]: 2 nM, 185 nM and 3 nM.
As to `CS(=O)(=O)N1CCN(c2ccc(Nc3ncnc(-c4ccc(OC5CCOCC5)c(C#N)c4)n3)cc2)CC1` [Example 66, 5-(4-((4-(4-(methylsulfonyl)piperazin-1-yl)phenyl)amino)-1,3,5-triazin-2-yl)-2-((tetrahydro-2H-pyran-4-yl)oxy)benzonitrile], the IC50 in experiment [1] is 5 nM; in experiment [2], 345 nM; in experiment [3], 2 nM.
The matching figures for `N#Cc1cc(-c2ncnc(Nc3ccc(N4CCN(C5COC5)CC4)cc3)n2)ccc1O[C@H]1CCNC[C@H]1F` [Example 239, 2-(((3R,4S)-3-fluoropiperidin-4-yl)oxy)-5-(4-((4-(4-(oxetan-3-yl)piperazin-1-yl)phenyl)amino)-1,3,5-triazin-2-yl)benzonitrile]: 59 nM, 409 nM and 8 nM.
The like results for `C[C@H](O)C(=O)N1CCC[C@@H](Oc2ccc(-c3ncnc(Nc4ccc(N5CCN(C6COC6)CC5)cc4)n3)cc2C#N)C1` [Example 126, 2-(((R)-1-((S)-2-hydroxypropanoyl)piperidin-3-yl)oxy)-5-(4-((4-(4-(oxetan-3-yl)piperazin-1-yl)phenyl)amino)-1,3,5-triazin-2-yl)benzonitrile] were, in that order, 111 nM, ≥ 1000 nM and 56 nM.
